Source: patent publication US20190127797A1, “BIOMARKERS FOR THE DIAGNOSIS OF INFLAMMATION-RELATED DISEASES” (UNIVERSITE DE BORDEAUX, priority 2016, published 2019)

Legend:
Assay type in all cases: cell-based, human
NLRC4 = NLRC4 expression by qPCR in primary monocytes; conditions: 100 μM, 6 hours, GAPDH-standardized, ratio relative to control
Description: (§1) FIG. 3. High levels of oxidative stress and increased nucleotide metabolites in IMH individuals can induce cytokine production and expression of inflammasome genes in primary monocytes. Broad-coverage metabolomics profiling was conducted on available serum samples from year 2011 (9 IML and 11 IMH individuals). […] Functional annotation and pathway analysis was conducted using MetPA. A significant enrichment for several metabolic pathways was identified for these metabolites (P<0.05) (a). Conversion of cysteine to cystine; and from arachidonic acid to 8-isoprostane, in the presence of ROS (b). Increased circulating levels of cystine and 8-isoprostane in IMH (b and c) indicate higher levels of oxidative stress (c and d). Adenine, DL-4-hydroxy-3-methoxymandelic acid (vanillylmandelate) (MMA), scyllo-inositol and N4-acetylcytidine (N4A) were selected based on their levels of significance (Q<0.001, see Table 5) and representing different metabolic pathways, to assess their ability to induce IL1FC and expression of NLRC4 in primary monocytes from four healthy donors (shown are the results of one representative experiment). Adenosine was used as a positive control. A significant induction of IL1FC is observed for adenosine and adenine, but not with other compounds (e). The highest dose of each compound (100 μM) was used to determine expression of NLRC4 and NLRP3 by qPCR on the same samples used for cytokine determination (e). […] As previously shown in mice, adenosine treatment up-regulates NLRP3 gene expression (P<0.01) (f). Expression of GAPDH was used to standardize the samples, and the results are expressed as a ratio relative to control. Error bars reflect experimental variability.
(§2) The dysfunction in nucleotide metabolism and in mitochondrial bioenergetics described above may explain the generation of circulating metabolites and chronic oxidative stress, respectively. To study whether the circulating metabolites found in higher levels in the sera from IMH compared to IML subjects up-regulate NLRC4 gene expression and/or cytokine production, four candidate compounds identified from our analysis were selected. They represent distinct metabolic pathways. These included adenine (purine metabolism), DL-4-hydroxy-3-methoxymandelic acid (vanillylmandelate) (phenylalanine and tyrosine metabolism), scyllo-inositol (inositol metabolism) and N4-acetylcytidine (N4A) (pyrimidine metabolism) (Table 5). Adenosine was included as a positive control for IL1FC production. Primary monocytes from four healthy donors were isolated from fresh […] blood and incubated with increasing concentrations of the indicated compounds for 6 hours. […] We also tested whether these stimulations lead to changes in the expression of NLRC4 and NLRP3 (used as a positive control for adenosine stimulation). […] More biochemical studies are necessary to address this.
(§3) Adenosine, adenine, DL-4-hydroxy-3-methoxymandelic acid, scyllo-inositol were all purchased form Sigma (Sigma-Aldrich, St. Louis, Mo.) and N4-acetylcytidine was purchased from Santa Cruz Biotechnology (Dallas, Tex.). Compounds were tested at the indicated concentrations on isolated monocytes from a healthy donor. […] Samples were then transferred to the Human Immune Monitoring Core at Stanford for quantification of cytokines, chemokines and growth factors using the 63-plex Luminex system, as described above. […]

NLRP3 = NLRP3 expression by qPCR in primary monocytes; conditions: 100 μM, 6 hours, GAPDH-standardized, ratio relative to control
Description: as §1, §2, §3

[1] = system: differentiated THP-1 cells; assay: Cytokine secretion (ELISA) from differentiated THP-1 cells; conditions: 6 hr; for production of IL-1β / production of IL-18 / production of TNF-α: without ATP pulse
Description: FIG. 4. N4-Acetylcytidine and Adenine induce the NLRC4 inflammasome. (a) Differentiated THP-1 cells were treated with ATP (5 mM, 30 min), or primed with LPS (1 μg/ml, 4 hr) and then pulsed with ATP; or treated with indicated concentrations (mM) of Adenine (Ad) or N4-Acetylcytidine (N4A) alone for 6 hr or (b) in combination, and then pulsed or not with ATP. Secretion of cytokines IL-1β, IL-18 and TNF-α were measured by ELISA from cell culture supernatants. (c) Differentiated THP-1 cells were treated with compounds as indicated (1 mM N4A; 300 μM Ad) for 6 hr or ATP 5 mM 30 min, cells were lysed and cell lysates were then immunoblotted with various antibodies to monitor expression of NLRs, Casp1, and prolL-1β. (d) Differentiated THP-1 cells were treated with compounds as before and cell lysates were submitted to immunoprecipitation with Biotinyl-YVAD-fmk peptide. Complexes were then recovered by using Streptavidin-sepharose beads and immunoblotted with anti-Caspase-1 p10 antibody. (e) Differentiated THP-1 cells were treated with compounds as before in the presence or not of Ac-YVAD-fmk or control DMSO, and IL-1β secretion was measured. (f) Differentiated WT or stable shTHP-1 cell lines were treated with compounds as before (1 mM N4A; 300 μM Ad) and IL-1β secretion was measured. To the right, western-blots showing protein expression of NLRC4 in stable shTHP-1 cell lines. (g) Bone marrow-derived macrophages from WT or KO mice as indicated were isolated and treated with combination of compounds (1 mM N4A; 300 μM Ad), and IL-1β secretion was measured. Data are expressed as concentration of cytokines (pg/ml) (mean±SD; n=3). * P<0.05, ** P<0.01.
In parallel experiments, differentiated THP-1 cells and a human monocytic cell Line were treated to address whether the metabolites N4A and adenine, alone or in combination, could induce inflammasome activation and cytokine secretion in vitro.
Adult male mice (12-18 week old) were divided into two groups: PBS or compound treated-mice (N4-Acetylcytidine+Adenine dissolved in PBS). Compound-treated mice were injected with N4-Acetylcytidine and Adenine (stock solution 20 mM each, 100 ul/25 g body weight, retro-orbital injection, once daily) or PBS. After 3 weeks of treatment, while they continued receiving daily injections of PBS or N4A+Adenine, mice from both groups were administered an infusion of human angiotensin II (AngII, #A9525, Sigma-Aldrich, St. Louis, Mo.) for another 2 weeks. Angll (140 ng/kg per min) was dissolved in 100 ul 20 mM (N4A+Adenine) or in 100 ul PBS and loaded into a small osmotic pump (Durect Corporation, Cupertino, Calif., USA). The osmotic pump was then implanted subcutaneously on the dorsal side around the neck of mice under anesthesia ([…]). Systolic blood pressure was measured every other day in conscious mice using tail-cuff plethysmography (Vistech System BP-2000, Apex, N.C., USA). Experiments with human THP-1 cells and primary blood platelets THP-1 monocytic cell lines were cultured in 6-well plates in RPMI media (supplemented with 10% Fetal Bovine Serum) and differentiated overnight with TPA (10 ng/ml). The day after, adherent cells were washed with fresh media and treated with agonists LPS ([…], 4 hrs) and ATP (5 mM, 30 min) or compounds Adenine/N4-Acetylcytidine at various concentrations.

primary monocytes = assay: IL1FC (IL-1α, IL-1β) production in primary monocytes treated with metabolites; conditions: primary monocytes from four healthy donors, increasing concentrations, 6 hours
Description: as §1
The dysfunction in nucleotide metabolism and in mitochondrial bioenergetics described above may explain the generation of circulating metabolites and chronic oxidative stress, respectively. To study whether the circulating metabolites found in higher levels in the sera from IMH compared to IML subjects up-regulate NLRC4 gene expression and/or cytokine production, four candidate compounds identified from our analysis were selected. They represent distinct metabolic pathways. […]
as §3, with “Tex.).” for “Tex.). Compounds were tested at the indicated concentrations on isolated monocytes from a healthy donor.”

primary platelets = assay: Platelet activation, CD61/CD62P membrane expression by flow cytometry; conditions: platelets of two healthy donors, 6 hrs at 37° C., various concentrations, CD61 and CD62P+
Description: Primary platelets were isolated from the blood of two donors and incubated for 6 hr at 37° C. with thrombin, or ADP, or various concentrations of Adenine or N4-Acetylcytidine. Platelet activation was monitored by measuring membrane expression of CD61 and CD62P by flow cytometry. Data are representative of at least three independent experiments with similar results. […] Thus, it was sought to determine whether [MUT] and adenine were able to activate human platelets in vitro. To do so, platelets were isolated from the blood of two healthy donors and incubated for 6 hrs at 37° C. with various concentrations of adenine or [MUT]. Thrombin, and ADP were used as controls and platelet activation was monitored by measuring membrane expression of CD61 and CD62P+ cells by flow cytometry. […] Human primary platelets were prepared from whole blood using a venepuncture in EDTA tube after a 20 min centrifugation at 1000 rpm without acceleration and break. Then the supernatant was harvested and 1 μM PGE1 was added. […] Platelets were then stimulated with thrombin (at 0.5 U/ml), ADP, or with the indicated concentrations of [MUT] or adenine, and activation was monitored by flow cytometry using 25 immunostaining of membrane markers with anti-CD61 (marker of platelet population), and anti-CD62-P (marker of activation involved in aggregation).

primary neutrophils = assay: Primary neutrophil activation (RANKL, degranulation, IL-1β secretion); conditions: 24 hr, various concentrations
Description: (b) Primary neutrophils were isolated from blood of healthy donors and incubated for 24 hr with various concentrations of adenine or N4A alone or in combination, and RANK-L+ cells were determined within the CD66b+ population. (c) Primary neutrophils were treated with N4A (1 mM) and/or adenine (1 mM) and the % of degranulated population was measured for each donor. (d) Primary neutrophils were treated as before with compounds as indicated and IL-1β secretion was measured from cell culture supernatants for each donor. Data are expressed as concentration of cytokines (pg/ml), or as fold increase with respect to non-treated (NT) condition as indicated. * P<0.05, ** P<0.01
In addition, the frequencies of 22 different cell subsets in IMH and IML older adults (N=22) were estimated and in a separate analysis, such frequencies were compared between young and older adults (N=86). For these analyses Cibersort (Newman et al. Robust enumeration of cell subsets from tissue expression profiles. Nature Methods 12, 453-457, 2015) was used, which uses gene expression profiles to characterize cell subset composition in complex tissues, such as whole blood. Significant differences were found in the estimated frequencies of circulating mast cells, as well as in the CD4 T regulatory cell compartment between young and older adults (P<0.01). […]

[2] = then pulsed with ATP (5 mM, 30 min)

Row | SMILES | expression of NLRC4 (NLRC4) | expression of NLRP3 (NLRP3) | secretion of IL-1β [1, 2] | secretion of IL-18 [1, 2] | production of IL-1β [1] | production of IL-18 [1] | production of TNF-α [1] | IL-1α production (primary monocytes) | IL-1β production (primary monocytes) | percentage of activated platelets (primary platelets) | RANKL+ cells within the CD66b population (primary neutrophils)
1 | COc1cc(C(O)C(=O)O)ccc1O (racemic) [DL-4-hydroxy-3-methoxymandelic acid] | No effect | No effect | – | – | – | – | – | – | – | – | –
2 | CC(=O)Nc1ccn([C@@H]2O[C@H](CO)[C@@H](O)[C@H]2O)c(=O)n1 [N4A, N4-acetylcytidine] | induced both NLRP3 and NLRC4 | induced both NLRP3 and NLRC4 | potently induced secretion | potently induced secretion | neither incubation with adenine nor with N4A alone had an effect | neither incubation with adenine nor with N4A alone had an effect | neither incubation with adenine nor with N4A alone had an effect | – | – | – | –
3 | Nc1ncnc2[nH]cnc12 [adenine] | No effect | No effect | – | – | neither incubation with adenine nor with N4A alone had an effect | neither incubation with adenine nor with N4A alone had an effect | neither incubation with adenine nor with N4A alone had an effect | significant increase | significant increase | robustly induced a dose-dependent increase | induced a potent increase
4 | Nc1ncnc2c1ncn2[C@@H]1O[C@H](CO)[C@@H](O)[C@H]1O [adenosine, reference compound] | no increase in NLRC4 was observed | increased expression of NLRP3 | – | – | – | – | – | significant increase | significant increase | – | –
5 | O[C@H]1[C@H](O)[C@@H](O)[C@H](O)[C@@H](O)[C@@H]1O [scyllo-inositol] | No effect | No effect | – | – | – | – | – | – | – | – | –
